One assay has as its system T1, HNL54.
T1 construct: synthetic gene in pET28b (NdeI/XhoI), E. coli BL21(DE3), Ni-Sepharose and gel filtration
Briefly: benzaldehyde formation at […] nm. The format is biochemical, synthetic construct. The following applies: 100 mM citrate pH 5.5, 30 °C.

A further assay deals with T2, HNL30.
T2 construct: pET28b (NdeI/XhoI), E. coli BL21(DE3), Ni-Sepharose and gel filtration
Briefly: benzaldehyde formation at […] nm. The format is biochemical, synthetic construct. The note with it: 100 mM citrate pH 5.5, 30 °C.

Each structure is given as a SMILES string. Like-named read-outs stand apart in the source and are kept apart here.

`N#C[C@@H](O)c1ccccc1` [(S)-Man]: the Km came to 610 µM in the assay on HNL54 (read-out: HNL54 / Km) and 400 µM in the assay with HNL30 (read-out: HNL30 / Km).

Regarding `N#CC(O)c1ccccc1` (racemic) [rac-Man], the results for the Km in the assay on HNL54 (read-out: Km /) and in the assay with HNL30 (read-out: Km /) were 3200 ± 300 µM and 800 ± 100 µM, respectively.

Regarding `N#C[C@H](O)c1ccccc1` [(R)-Man], the values for the Km in the assay on HNL54 (read-out: HNL54 / Km) and with HNL30 (read-out: HNL30 / Km) were 370 µM and 5000 µM, respectively.

Source of the values: article PMC4648443, “Protein evolution analysis of S-hydroxynitrile lyase by complete sequence design utilizing the INTMSAlign software” (Scientific Reports, 2015).
